Assay results as given in US9221767B2, “Substituted phthalazinones as rock inhibitors” (BRISTOL-MYERS SQUIBB COMPANY, priority 2013, dated 2015).
Like-named read-outs stand apart in the source and are kept apart here.

What was measured:
ROCK2 = ROCK2 (Homo sapiens (Human), UniProt O75116); assay: ROCK assay (LabChip peptide phosphorylation), ROCK2; assay type: biochemical; settings: 5 μM ATP, 1.5 μM peptide substrate
Description: (§1) The effectiveness of compounds of the present invention as ROCK inhibitors can be determined in a 30 μL assay containing 20 mM HEPES, pH 7.5, 20 mM MgCl2, 0.015% Brij-35, 4 mM DTT, 5 μM ATP and 1.5 μM peptide substrate (FITC-AHA-[…]-OH). Compounds were dissolved in DMSO so that the final concentration of DMSO was <2%, and the reaction was initiated with Rho kinase variants. After incubation, the reaction was terminated by the addition of EDTA and the phosphorylated and non-phosphorylated peptides separated using a LabChip 3000 Reader (Caliper Life Sciences). […] Compounds were tested in dose-response format, and the inhibition of kinase activity was calculated at each concentration of compound. The inhibition data were fit using a curve-fitting program to determine the IC50; i.e., the concentration of compound required to inhibit 50% of kinase activity.”

ROCK1 = ROCK1 (Homo sapiens (Human), UniProt Q13464); assay: ROCK assay (LabChip peptide phosphorylation), ROCK1; assay type: biochemical; settings: 5 μM ATP, 1.5 μM peptide substrate
Description: as §1

[1] = tested on: IL-1 beta-induced coronary stenosis; settings: long term treatment; cited from earlier work
rat stroke model = settings: in vivo; cited from earlier work
[2] = tested on: neointimal formation in rats; settings: cited from earlier work
Dahl salt-sensitive rats = settings: rat, in vivo; cited from earlier work
[3] = tested on: spontaneously hypertensive rat, renal hypertensive rat and deoxycortisone acetate salt hypertensive rat models; settings: cited from earlier work

ROCK1, sequence (Q13464 whole entry, species assumed): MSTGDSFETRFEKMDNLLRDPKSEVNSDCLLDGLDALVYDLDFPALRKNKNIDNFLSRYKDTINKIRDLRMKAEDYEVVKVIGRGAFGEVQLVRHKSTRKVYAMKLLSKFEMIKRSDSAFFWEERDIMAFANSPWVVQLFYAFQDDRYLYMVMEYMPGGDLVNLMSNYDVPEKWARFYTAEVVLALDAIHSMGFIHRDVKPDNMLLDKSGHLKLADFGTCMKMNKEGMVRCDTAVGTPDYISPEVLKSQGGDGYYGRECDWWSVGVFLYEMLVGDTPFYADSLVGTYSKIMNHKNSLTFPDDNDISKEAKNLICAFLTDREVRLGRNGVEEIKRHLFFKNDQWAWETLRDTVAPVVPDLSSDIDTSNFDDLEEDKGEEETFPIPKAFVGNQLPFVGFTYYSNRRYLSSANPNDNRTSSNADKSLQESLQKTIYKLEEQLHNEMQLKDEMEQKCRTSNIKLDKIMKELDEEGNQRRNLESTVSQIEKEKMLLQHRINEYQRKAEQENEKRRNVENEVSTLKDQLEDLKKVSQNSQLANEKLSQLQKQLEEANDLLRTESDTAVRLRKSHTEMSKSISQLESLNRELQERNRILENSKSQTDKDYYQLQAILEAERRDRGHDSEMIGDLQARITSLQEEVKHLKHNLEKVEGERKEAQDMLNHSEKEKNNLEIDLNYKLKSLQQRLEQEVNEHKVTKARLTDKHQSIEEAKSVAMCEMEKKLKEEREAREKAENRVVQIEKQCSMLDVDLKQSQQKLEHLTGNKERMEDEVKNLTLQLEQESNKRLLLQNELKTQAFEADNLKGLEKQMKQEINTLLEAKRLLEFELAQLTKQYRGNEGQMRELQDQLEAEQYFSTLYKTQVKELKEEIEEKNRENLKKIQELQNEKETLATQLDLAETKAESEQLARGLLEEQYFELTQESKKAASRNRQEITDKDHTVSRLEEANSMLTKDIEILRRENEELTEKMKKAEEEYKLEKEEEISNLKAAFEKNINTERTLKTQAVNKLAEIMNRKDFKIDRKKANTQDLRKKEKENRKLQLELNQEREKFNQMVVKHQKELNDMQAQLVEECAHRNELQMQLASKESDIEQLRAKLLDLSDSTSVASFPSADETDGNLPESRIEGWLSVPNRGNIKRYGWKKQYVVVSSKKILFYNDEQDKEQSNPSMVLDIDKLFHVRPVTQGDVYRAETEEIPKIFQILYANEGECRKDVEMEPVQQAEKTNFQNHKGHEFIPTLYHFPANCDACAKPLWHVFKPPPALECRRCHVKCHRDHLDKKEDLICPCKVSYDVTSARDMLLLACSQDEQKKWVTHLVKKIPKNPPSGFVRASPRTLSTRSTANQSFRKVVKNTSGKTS
ROCK2, sequence (O75116 whole entry, species assumed): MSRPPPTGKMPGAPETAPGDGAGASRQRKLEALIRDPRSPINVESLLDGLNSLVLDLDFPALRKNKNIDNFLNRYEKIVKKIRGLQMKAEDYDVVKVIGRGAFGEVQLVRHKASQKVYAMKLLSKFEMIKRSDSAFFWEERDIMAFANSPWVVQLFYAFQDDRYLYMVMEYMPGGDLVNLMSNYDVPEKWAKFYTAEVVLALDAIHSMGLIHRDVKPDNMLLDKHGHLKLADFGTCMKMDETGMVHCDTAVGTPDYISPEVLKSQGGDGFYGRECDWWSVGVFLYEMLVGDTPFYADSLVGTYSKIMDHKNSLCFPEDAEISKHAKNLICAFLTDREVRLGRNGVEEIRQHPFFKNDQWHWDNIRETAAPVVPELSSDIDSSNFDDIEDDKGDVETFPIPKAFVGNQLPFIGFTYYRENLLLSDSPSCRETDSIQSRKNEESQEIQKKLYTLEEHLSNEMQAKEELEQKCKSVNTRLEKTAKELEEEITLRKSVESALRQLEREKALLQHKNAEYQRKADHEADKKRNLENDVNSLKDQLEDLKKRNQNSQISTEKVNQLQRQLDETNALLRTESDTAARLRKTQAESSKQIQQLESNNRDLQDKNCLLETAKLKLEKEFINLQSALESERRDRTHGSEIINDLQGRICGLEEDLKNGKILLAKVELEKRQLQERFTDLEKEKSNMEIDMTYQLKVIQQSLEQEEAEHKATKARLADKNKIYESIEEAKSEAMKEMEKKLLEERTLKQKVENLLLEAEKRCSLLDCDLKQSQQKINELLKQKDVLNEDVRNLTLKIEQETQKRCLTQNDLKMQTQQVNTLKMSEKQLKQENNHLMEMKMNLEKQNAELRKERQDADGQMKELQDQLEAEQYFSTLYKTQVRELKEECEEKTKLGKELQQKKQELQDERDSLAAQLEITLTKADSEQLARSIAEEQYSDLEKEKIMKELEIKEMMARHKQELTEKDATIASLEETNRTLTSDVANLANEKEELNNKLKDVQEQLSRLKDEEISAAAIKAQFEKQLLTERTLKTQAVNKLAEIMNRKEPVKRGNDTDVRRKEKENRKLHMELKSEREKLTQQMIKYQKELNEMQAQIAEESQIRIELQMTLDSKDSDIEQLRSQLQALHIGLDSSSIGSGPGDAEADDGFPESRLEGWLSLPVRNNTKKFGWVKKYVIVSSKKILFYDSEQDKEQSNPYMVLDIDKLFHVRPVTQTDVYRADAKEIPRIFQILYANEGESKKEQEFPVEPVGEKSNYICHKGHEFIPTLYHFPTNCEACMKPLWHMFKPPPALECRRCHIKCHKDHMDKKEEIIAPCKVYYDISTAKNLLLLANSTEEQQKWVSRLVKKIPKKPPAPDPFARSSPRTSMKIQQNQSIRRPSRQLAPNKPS

IC50 (ROCK2) [nM] | IC50 (ROCK1) [nM] | SMILES | also measured
225 | 544 | Cn1ccnc1C(=O)Nc1ccc(-c2n[nH]c(=O)c3ccccc23)cc1 [Example 52] | 
17 | 729 | O=C(Cc1ccc(-c2n[nH]c(=O)c3ccccc23)cc1)Nc1nc2ccccc2o1 [Example 10] | 
9730 | 16200 | COC[C@@H]1CCCN1C(=O)Cc1ccc(-c2n[nH]c(=O)c3ccccc23)cc1 [Example 13] | 
 |  | O=S(=O)(c1cccc2cnccc12)N1CCCNCC1 [fasudil] | coronary constrictive remodeling [1]: promote a regression of coronary constrictive remodeling; coronary stenosis [1]: progressively reduce coronary stenosis; infarct size (rat stroke model): reduce; neurologic deficit (rat stroke model): reduce
1.2 | 23 | CCOc1ccc2c(c1)N(C(=O)Cc1ccc(-c3n[nH]c(=O)c4ccccc34)cc1)CC2 [Example 33] | 
39 | 670 | O=C(Nc1ccc(-c2n[nH]c(=O)c3ccccc23)cc1)c1csc(-c2ccc(C(F)(F)F)cc2)n1 [Example 48] | 
 |  | C[C@@H](N)[C@H]1CC[C@H](C(=O)Nc2ccncc2)CC1 [Example Y-27632, Y-27632] | neointimal formation [2]: inhibited neointimal formation; ventricular hypertrophy, fibrosis and function (Dahl salt-sensitive rats): improve ventricular hypertrophy, fibrosis and function; blood pressure ([3]; control rats): only a minor effect on blood pressure; blood pressure ([3]; three rat models of hypertension): significantly decrease blood pressure
0.3 | 35 | CN(C)c1ccc(C(=O)Nc2ccc(-c3n[nH]c(=O)c4ccccc34)cc2)cc1 [Example 58] | 
5830 | 6480 | O=C(Cc1ccc(-c2n[nH]c(=O)c3ccccc23)cc1)NC1CCC1 [Example 19] | 
553 | 11900 | O=C(Cc1ccc(-c2n[nH]c(=O)c3ccccc23)cc1)N1CCCc2ccccc21 [Example 34] | 
2.1 | 49 | O=C(Nc1ccc(-c2n[nH]c(=O)c3ccccc23)cc1)c1ccc(N2CCCCC2)cc1 [Example 61] | 
30 | 679 | O=C(Cc1ccc(-c2n[nH]c(=O)c3ccccc23)cc1)N1Cc2ccc(F)cc2C1 [Example 2, 4-(4-(2-(5-fluoroisoindolin-2-yl)-2-oxoethyl)phenyl)phthalazin-1(2H)-one] | 

SMILES | IC50 (ROCK2) [nM] | IC50 (ROCK1) [nM] | also measured
O=C(Nc1ccc(-c2n[nH]c(=O)c3ccccc23)cc1)N1CCc2ccccc21 [Example 76, N-(4-(4-oxo-3,4-dihydrophthalazin-1-yl)phenyl)indoline-1-carboxamide] | 1.2 | 20 | 
O=C(Nc1ccc(-c2n[nH]c(=O)c3ccccc23)cc1)c1ccccc1 [Example 67] | 14 | 175 | 
O=C(Oc1ccc(-c2n[nH]c(=O)c3ccccc23)cc1)N1CCC(c2ccccc2)C1 (stereo not shown) [Example 69, 4-(4-oxo-3,4-dihydrophthalazin-1-yl)phenyl 3-phenylpyrrolidine-1-carboxylate] | 894 | 50000 | 
